Source: patent publication US20110257220A1, “3,11 b-cis-Dihydrotetrabenazine for the Treatment of Schizophrenia and Other Psychoses” (CAMBRIDGE LABORATORIES (IRELAND) LIMITED, priority 2005, published 2011)
Entries after “also recorded” stand apart in the source; their conditions may differ.

What was measured:
[1] = target: T1, Adrenergic α2A Receptor (Homo sapiens, UniProt P08913); assay: Adrenergic α2A receptor radioligand binding ([3H] MK-912); conditions: 10 μM solution; for inhibition at 10 µM: read-out: Percentage Inhibition of Specific Binding, α2A Receptor
T1 construct: expressed in transfected cells; host or cells: insect Sf9 cells
T1 sequence (P08913 1-465): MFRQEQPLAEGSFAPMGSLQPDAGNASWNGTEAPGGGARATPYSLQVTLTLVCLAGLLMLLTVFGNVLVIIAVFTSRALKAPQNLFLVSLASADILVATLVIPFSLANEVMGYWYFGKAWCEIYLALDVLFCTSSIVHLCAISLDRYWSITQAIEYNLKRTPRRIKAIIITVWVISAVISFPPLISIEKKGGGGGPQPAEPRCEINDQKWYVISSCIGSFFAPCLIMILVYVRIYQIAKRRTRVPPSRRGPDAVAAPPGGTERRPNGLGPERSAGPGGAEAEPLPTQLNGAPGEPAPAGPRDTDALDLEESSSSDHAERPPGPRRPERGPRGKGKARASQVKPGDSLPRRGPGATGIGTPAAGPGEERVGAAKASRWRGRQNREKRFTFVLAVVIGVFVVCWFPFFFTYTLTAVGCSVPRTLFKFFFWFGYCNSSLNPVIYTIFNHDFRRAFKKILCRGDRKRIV
Method: (§1) The four dihydrotetrabenazine isomers A, B, C and D were subjected to specific binding assays to test their ability to bind to the receptors and transporter proteins described below. The results are set out in Table 5
(a) Adrenergic α2A Receptor:
• Reference: S. Uhlen et al. J. Pharmacol. Exp. Ther., 271:1558-1565 (1994) • Source: Human recombinant insect Sf9 cells • Ligand: 1 nM [^3H]

[2] = target: T2, Dopamine Transporter (DAT) (Homo sapiens, UniProt Q01959); assay: Dopamine transporter radioligand binding ([125I] RTI-55); conditions: 10 μM solution; for inhibition at 10 µM: read-out: Percentage Inhibition of Specific Binding, DAT
T2 construct: expressed in transfected cells; host or cells: CHO cells
T2 sequence (Q01959 whole entry): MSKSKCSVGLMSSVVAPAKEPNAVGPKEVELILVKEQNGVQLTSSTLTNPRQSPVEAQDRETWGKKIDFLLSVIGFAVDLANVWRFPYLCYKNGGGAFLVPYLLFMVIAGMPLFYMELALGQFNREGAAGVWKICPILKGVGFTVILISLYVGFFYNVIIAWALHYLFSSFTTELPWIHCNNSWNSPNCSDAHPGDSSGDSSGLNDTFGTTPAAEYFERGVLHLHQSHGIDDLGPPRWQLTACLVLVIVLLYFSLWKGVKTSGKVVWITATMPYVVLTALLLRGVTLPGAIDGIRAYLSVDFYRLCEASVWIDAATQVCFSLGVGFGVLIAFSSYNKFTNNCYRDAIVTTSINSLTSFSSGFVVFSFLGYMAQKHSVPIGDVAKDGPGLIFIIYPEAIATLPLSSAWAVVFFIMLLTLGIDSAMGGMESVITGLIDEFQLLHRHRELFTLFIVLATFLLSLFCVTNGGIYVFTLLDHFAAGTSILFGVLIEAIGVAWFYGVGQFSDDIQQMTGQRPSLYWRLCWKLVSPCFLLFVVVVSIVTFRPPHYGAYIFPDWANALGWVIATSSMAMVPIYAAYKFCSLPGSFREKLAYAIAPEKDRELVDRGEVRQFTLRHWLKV
Method: as §1
(j) Dopamine Transporter (DAT):
• Reference: Giros et al., Trends Pharmacol. Sci., 14, 43-49 (1993) Gu et al., J. Biol. Chem., 269(10):7124-7130 (1994) • Source: Human recombinant CHO cells • Ligand: 0.15 nM [^125I]

[3] = target: T3, Dopamine D1 Receptor (Homo sapiens, UniProt P21728); assay: Dopamine D1 receptor radioligand binding ([3H] SCH-23390); conditions: 10 μM solution; for inhibition at 10 µM: read-out: Percentage Inhibition of Specific Binding, D1 Receptor
T3 construct: expressed in transfected cells; host or cells: CHO cells
T3 sequence (P21728 whole entry): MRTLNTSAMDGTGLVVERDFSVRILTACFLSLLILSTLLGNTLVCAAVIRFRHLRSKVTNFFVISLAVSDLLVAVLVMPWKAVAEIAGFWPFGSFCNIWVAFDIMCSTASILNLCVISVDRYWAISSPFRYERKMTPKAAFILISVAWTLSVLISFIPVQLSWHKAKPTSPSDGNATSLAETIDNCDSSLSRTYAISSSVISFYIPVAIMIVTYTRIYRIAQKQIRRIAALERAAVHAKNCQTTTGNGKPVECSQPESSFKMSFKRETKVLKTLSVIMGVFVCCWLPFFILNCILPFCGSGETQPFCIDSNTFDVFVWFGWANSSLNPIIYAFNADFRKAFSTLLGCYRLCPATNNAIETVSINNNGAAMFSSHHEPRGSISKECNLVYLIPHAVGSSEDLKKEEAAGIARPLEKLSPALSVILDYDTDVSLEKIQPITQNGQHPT
Method: as §1
(c) Dopamine D1 Receptor:
• Reference: Dearry et al., Nature, 347:72-76, (1990) • Source: Human recombinant CHO cells • Ligand: 1.4 nM [3H]

[4] = target: T4, Dopamine D2L Receptor (Homo sapiens, UniProt P14416); assay: Dopamine D2L receptor radioligand binding ([3H] Spiperone); conditions: 10 μM solution; for inhibition at 10 µM: read-out: Percentage Inhibition of Specific Binding, D2L Receptor
T4 construct: expressed in transfected cells; host or cells: CHO cells
T4 sequence (P14416 whole entry): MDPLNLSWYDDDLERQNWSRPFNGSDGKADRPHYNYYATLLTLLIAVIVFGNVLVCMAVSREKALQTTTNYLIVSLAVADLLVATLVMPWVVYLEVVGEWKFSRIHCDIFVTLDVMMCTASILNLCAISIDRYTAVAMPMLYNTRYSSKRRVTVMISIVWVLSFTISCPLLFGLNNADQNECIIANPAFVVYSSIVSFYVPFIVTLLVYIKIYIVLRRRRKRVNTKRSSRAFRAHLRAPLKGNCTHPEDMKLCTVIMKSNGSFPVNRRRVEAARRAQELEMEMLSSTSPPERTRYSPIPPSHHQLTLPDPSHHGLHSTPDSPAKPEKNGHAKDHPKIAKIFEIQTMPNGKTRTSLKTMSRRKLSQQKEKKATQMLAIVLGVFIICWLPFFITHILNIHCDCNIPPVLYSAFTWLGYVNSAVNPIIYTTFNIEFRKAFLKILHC
Method: as §1
(d) Dopamine D2L, Receptor:
• Reference: Bunzo et al., Nature, 336:783-787 (1988) • Source: Human recombinant CHO cells • Ligand: 0.16 nM [3H]

[5] = test system: female hooded-Lister rats; assay: Novel object recognition (NOR) task, sub-chronic PCP-induced cognitive deficit; type: in vivo, rat
Source text: Certain pre-clinical tests allow the observation of relatively subtle cognitive deficits in the rat that resemble cognitive symptoms in subjects with schizophrenia. The cognitive deficits observed are seen in behaviours such as working memory deficits which may be measured by recognition tasks such as the novel object recognition (NOR) paradigm. A recognition memory task allows the comparison between presented stimuli and previously stored information. Ennaceur & Delacour, Behav. Brain Res. 31: 47-59 (1988) described the NOR test in rats which was based on the differential exploration of familiar and new objects. The NOR test is a non-rewarded, ethologically relevant paradigm based on the spontaneous exploratory behaviour of rats which measures working memory. Each session consists of two trials. In the first trial, the rats are exposed to two identical objects in an open field. During the second trial, rats are exposed to two dissimilar objects, one familiar object from the first trial and one new object. Object recognition in rats can be measured as the difference in time spent exploring the familiar and the new object.
The abovementioned rodent model was used to assess the effects of the Isomer A on sub-chronic PCP-induced deficits in working memory using the novel object recognition (NOR) paradigm. The working hypothesis was that both acute and sub-chronic treatment with Isomer A will attenuate the selective working memory deficit induced by sub-chronic PCP as measured in the NOR test paradigm.
Rats are allowed to habituate to the empty test box and the behavioural test room environment for 1 hour on day 1. Prior to behavioural testing on day 2 rats are given a further 3 minutes habituation.
Following the 3 minute habituation period, the rats are given two 3 minute trials (T1 and T2) which are separated by a 1 minute inter-trial interval in the home cage during which the objects are changed.
In this trial, the animals are allowed to explore two identical objects (A1 and A2) for 3 minutes.
In this trial, the animals explore a familiar object (A) from T1 and a novel object (B) for 3 minutes. The familiar object presented during T2 is a duplicate of the object presented in T1 in order to avoid any olfactory trails.
The object exploration is defined by animals licking, sniffing or touching the object with the forepaws whilst sniffing, but not leaning against, turning around, standing or sitting on the object. The exploration time (s) of each object (A1, A2, A and B) in each trial are recorded using two stopwatches and the following factors are calculated: • Total exploration time of both objects in the acquisition trial (s). • Total exploration time of both objects in the retention trial (s). • Habituation of exploratory activity. The LMA includes the exploration time, as measured by the number of lines crossed, for both the trials. • Discrimination index, which is calculated as shown below;
(time spent exploring novel object−time spent exploring familiar object)÷total time spent in exploring the objects
Behaviour in all trials was recorded on video for subsequent blind scoring.
50 female hooded-Lister rats (Harlan, UK) were used as subjects for these studies. Rats were housed in groups of 5 under standard laboratory conditions under a 12 hr light:dark cycle, lights on at 0700 hr. All testing was carried out in the light phase. Food and water were freely provided. […]

Structure (SMILES)	Percentage Inhibition of Specific Binding, α2A Receptor [1] [%]	Percentage Inhibition of Specific Binding, DAT [2] [%]	Percentage Inhibition of Specific Binding, D1 Receptor [3] [%]	Percentage Inhibition of Specific Binding, D2L Receptor [4] [%]	inhibition at 10 µM [1] [%]	inhibition at 10 µM [2] [%]	inhibition at 10 µM [3] [%]	inhibition at 10 µM [4] [%]	Sedation (observation of behaviour) ([5]; 30 mg/kg Isomer A p.o., rats in NOR arena)	Locomotor activity in the test arena (number of lines crossed, T1+T2) ([5]; 30 mg/kg Isomer A p.o., sub-chronic PCP rats, FIG. 4)	Attenuation of sub-chronic PCP-induced deficit, retention phase (exploration time of familiar vs novel object) ([5]; Isomer A 3-30 mg/kg p.o. acute, 30 min before test, sub-chronic PCP 2 mg/kg i.p. twice daily 7 days, FIG. 2)	Exploration of two identical objects in the acquisition phase (T1) ([5]; Isomer A 3-30 mg/kg p.o., sub-chronic PCP rats, FIG. 1)
COc1cc2c(cc1OC)[C@H]1C[C@@H](O)[C@H](CC(C)C)CN1CC2 (single isomer, unassigned; isomer d) [Isomer D]	87	2	38	58	–	–	–	–	–	–	–	–
COc1cc2c(cc1OC)C1CC(O)C(CC(C)C)CN1CC2 (single isomer, unassigned) [Isomer C]	–	–	–	–	13	-2	6	-14	–	–	–	–
COc1cc2c(cc1OC)[C@@H]1C[C@@H](O)[C@H](CC(C)C)CN1CC2 (single isomer, unassigned) [Isomer A]	–	–	–	–	86	3	78	87	did not appear sedated	significant effect to reduce locomotor activity	has efficacy to attenuate the sub-chronic PCP-induced deficit; also recorded: significant at the highest dose	no effect
COc1cc2c(cc1OC)[C@H]1C[C@H](O)[C@@H](CC(C)C)CN1CC2 (single isomer, unassigned) [Isomer B]	–	–	–	–	12	4	1	16	–	–	–	–
